Where a name gives a salt, the structure may show the parent alone. Read-outs that look alike come from different tables or passages of the source.
Assays:
[1] = system: cholinesterase in hemolyzed whole blood (hemolysate); assay: Sigma Diagnostics Cholinesterase (PTC) kit, hemolysate of patient blood samples; format: biochemical, human; details: for Hemolysate ChE activity: no addition = 1.00, blood samples from 3 patients
Excerpt: (§1) HChE=(EChE×Hct*)+(PChE×(1--Hct*))
By doing this, the values are obtained directly.
The results are shown below in table 1.1.

[2] = target: butyrylcholinesterase (pseudocholinesterase) in serum (Homo sapiens, UniProt P06276); details: for Serum ChE activity: no addition = 1.00, blood samples from 3 patients
Excerpt: SIGMA DIAGNOSTICS® CHOLINESTERASE (PTC) kit, available from Sigma Diagnostics, can be used for determining the activity and selectivity of cholinesterase inhibitors. In the following, it is illustrated how the kit is used for the determination of the activity and selectivity of Nivalin (Galanthamine hydrobromide).
Reactions involved in the cholinesterase assay are as follows: [drawing 3]
Thiocholine+5,5'-Dithiobis-2-Nitrobenzoic Acid→5-Thio-2-NitrobenzoicAcid
5-Thio-2-Nitrobenzoic Acid is assessed by measuring the absorbance at 405 nm. The rate of change in absorbance at 405 nm is directly proportional to cholinesterase activity.
The activity of erythrocyte cholinesterase may be calculated on the basis of the measurement of butyrylcholinesterase (pseudocholinesterase) in serum and cholinesterase in hemolyzed whole blood (hemolysate), both measured simultaneously by the method described above, and evaluated according to the hematocrit value according to the formula
as §1
In the above formulae, EChE is erythrocyte cholinesterase activity, PChE is plasma cholinesterase activity, HChE is hemolysate cholinesterase activity, and Hct is hematocrit value of the sample.
Another way of assessing the cholinesterase activity is to measure the plasma cholinesterase and the cholinesterase in purified hemolyzed erythrocytes. By doing this, the values are obtained directly.
Blood samples from 3 patients were tested with the Sigma test. The tests were carried out with samples where no Nivalin was added and with samples where 1.25 μg/ml Nivalin and 2.5 μg/ml were added in vitro.

[3] = cited from earlier work
[4] = system: acetylcholinesterase as opposed to butyrylcholinesterase; details: in vitro method by Thomsen et al.; hydrobromide; cited from earlier work

butyrylcholinesterase (pseudocholinesterase) in serum, sequence (P06276 29-602): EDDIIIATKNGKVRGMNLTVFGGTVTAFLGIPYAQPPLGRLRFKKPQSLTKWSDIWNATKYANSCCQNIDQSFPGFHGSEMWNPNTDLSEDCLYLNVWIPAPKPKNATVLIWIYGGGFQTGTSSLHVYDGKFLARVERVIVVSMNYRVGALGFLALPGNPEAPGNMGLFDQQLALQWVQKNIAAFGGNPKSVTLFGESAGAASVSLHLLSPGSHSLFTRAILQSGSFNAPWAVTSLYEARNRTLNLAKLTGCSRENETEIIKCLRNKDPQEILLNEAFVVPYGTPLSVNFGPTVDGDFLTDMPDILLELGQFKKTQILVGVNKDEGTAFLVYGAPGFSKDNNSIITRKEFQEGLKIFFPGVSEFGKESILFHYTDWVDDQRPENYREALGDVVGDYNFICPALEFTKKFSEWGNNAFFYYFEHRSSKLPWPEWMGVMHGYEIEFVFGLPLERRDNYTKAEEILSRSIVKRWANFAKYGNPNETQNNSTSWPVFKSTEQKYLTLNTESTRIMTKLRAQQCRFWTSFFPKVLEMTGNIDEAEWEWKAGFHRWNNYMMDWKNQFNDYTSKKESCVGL

COc1ccc2c3c1O[C@H]1C[C@@H](O)C=C[C@@]31CCN(C)C2 [galanthamine hydrobromide, Galanthamine hydrobromide]
Hemolysate ChE activity ([1]; 1.25 μg/ml added in vitro): 0.96
Hemolysate ChE activity ([1]; 2.50 μg/ml added in vitro): 0.86
change of hemolysate cholinesterase activity with increased concentration ([1]; in words): significant reduction
Serum ChE activity ([2]; 1.25 μg/ml added in vitro): 0.98
Serum ChE activity ([2]; 2.50 μg/ml added in vitro): 0.97
change of serum cholinesterase activity on addition ([2]; in words): do not show any statistically significant change
elimination half life ([3]; in vivo): over four
absorption from the gut ([3]; in words): absorbed rapidly from the gut
passage of the blood brain barrier ([3]; in words): transverses the blood brain barrier easily
renal elimination ([3]; in words): practically complete renal elimination
selectivity for acetylcholinesterase as opposed to butyrylcholinesterase [4]: 50 fold
